# Data reported in ChEMBL document CHEMBL1147859, “Thienopyrimidinone bis-aminopyrrolidine ureas as potent melanin-concentrating hormone receptor-1 (MCH-R1) antagonists” (Bioorg Med Chem Lett, 2007).
# Key:
# [1] = target: T1, Melanin-concentrating hormone receptor 1 (Homo sapiens, UniProt Q99705); test: Binding affinity to human MCHR1
# [2] = target: T1, Melanin-concentrating hormone receptor 1; test: Antagonist activity at human MCHR1 by [35S]GTP-gamma-S binding assay; format: functional
# [3] = target: Cytochrome P450 2D6 (Homo sapiens, UniProt P10635); test: Inhibition of CYP2D6; format: ADME; details: for Activity: human
# Cytochrome P450 2D6, sequence (P10635 whole entry): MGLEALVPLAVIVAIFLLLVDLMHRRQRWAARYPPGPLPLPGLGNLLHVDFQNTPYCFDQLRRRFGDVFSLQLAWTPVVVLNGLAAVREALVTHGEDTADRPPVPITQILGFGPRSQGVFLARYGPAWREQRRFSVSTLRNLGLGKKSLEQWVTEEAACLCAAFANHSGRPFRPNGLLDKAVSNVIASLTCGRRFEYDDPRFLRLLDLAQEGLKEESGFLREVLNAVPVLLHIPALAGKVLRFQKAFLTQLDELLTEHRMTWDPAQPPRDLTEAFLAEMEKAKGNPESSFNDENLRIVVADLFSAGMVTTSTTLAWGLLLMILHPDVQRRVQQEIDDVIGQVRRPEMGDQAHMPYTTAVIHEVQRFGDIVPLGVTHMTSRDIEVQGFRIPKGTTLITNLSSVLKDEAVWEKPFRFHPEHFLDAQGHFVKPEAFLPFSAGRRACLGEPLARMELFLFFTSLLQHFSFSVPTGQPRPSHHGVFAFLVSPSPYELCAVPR
# [4] = Intrinsic clearance in human liver microsome; format: ADME; details: liver microsomes
# [5] = target: CYP2D6 (Homo sapiens, UniProt P10635); test: Inhibition of CYP2D6 at 120 uM; format: ADME
# CYP2D6, sequence (P10635 whole entry): as above
# T1 sequence (Q99705 whole entry): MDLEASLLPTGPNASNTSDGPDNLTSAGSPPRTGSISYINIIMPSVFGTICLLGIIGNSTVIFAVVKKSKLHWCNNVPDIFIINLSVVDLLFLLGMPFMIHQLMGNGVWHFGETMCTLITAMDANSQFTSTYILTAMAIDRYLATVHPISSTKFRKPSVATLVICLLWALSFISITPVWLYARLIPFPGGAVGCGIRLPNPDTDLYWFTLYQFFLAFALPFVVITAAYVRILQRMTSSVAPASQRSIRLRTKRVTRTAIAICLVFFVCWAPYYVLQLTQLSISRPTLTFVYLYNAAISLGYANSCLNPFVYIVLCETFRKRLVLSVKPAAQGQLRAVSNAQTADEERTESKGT
Ki [1] [nM],IC50 [2] [nM],SMILES,also measured
18,–,CN(C(=O)N1CC[C@H](n2cnc3cc(-c4ccc(OC(F)(F)F)cc4)sc3c2=O)C1)[C@H]1CCN(C2CCOCC2)C1,–
154,–,CN(C(=O)N1CC[C@@H](n2cnc3cc(-c4ccc(Cl)cc4)sc3c2=O)C1)[C@H]1CCN(C2CCOCC2)C1,–
39,–,CN1CC[C@H](N(C)C(=O)N2CC[C@H](n3cnc4cc(-c5ccc(OC(F)(F)F)cc5)sc4c3=O)C2)C1,–
7,11,CN(C(=O)N1CC[C@H](n2cnc3cc(-c4ccc(Cl)cc4)sc3c2=O)C1)[C@H]1CCN(CC2CCOCC2)C1,–
10,20,CN1CC[C@H](N(C)C(=O)N2CC[C@H](n3cnc4cc(-c5ccc(Cl)cc5)sc4c3=O)C2)C1,Activity [3]: 99 µM; CLint scaled [4]: 16 mL/min/kg
70,–,Cc1ccc(-c2cc3ncn([C@H]4CCN(C(=O)N(C)[C@H]5CCN(C6CCOCC6)C5)C4)c(=O)c3s2)c(C)c1,–
4,15,CN(C(=O)N1CC[C@H](n2cnc3cc(-c4ccc(Cl)cc4)sc3c2=O)C1)[C@H]1CCN(Cc2ccoc2)C1,–
4,10,CN(C(=O)N1CC[C@H](n2cnc3cc(-c4ccc(Cl)cc4)sc3c2=O)C1)[C@H]1CCN(CC2CCOC2)C1 (some centres not stated),–
7,11,CN(C(=O)N1CC[C@H](n2cnc3cc(-c4ccc(Cl)cc4)sc3c2=O)C1)[C@H]1CCN(CCC2CCOCC2)C1,–
49,–,Cc1ccc(-c2cc3ncn([C@H]4CCN(C(=O)N(C)[C@H]5CCN(C)C5)C4)c(=O)c3s2)c(C)c1,–
17,44,CN(C(=O)N1CC[C@H](n2cnc3cc(-c4ccc(Cl)cc4)sc3c2=O)C1)[C@H]1CCN(CC(=O)C(C)(C)C)C1,–
19,–,CN(C(=O)N1CC[C@H](n2cnc3cc(-c4ccc(C(F)(F)F)cc4)sc3c2=O)C1)[C@H]1CCN(C2CCOCC2)C1,–
143,–,CN1CC[C@H](N(C)C(=O)N2CC[C@H](n3cnc4cc(-c5ccc6c(c5)OCCO6)sc4c3=O)C2)C1,–
3,23,CN(C(=O)N1CC[C@H](n2cnc3cc(-c4ccc(Cl)cc4)sc3c2=O)C1)[C@H]1CCN(C2CCOCC2)C1,IC50 [3]: 22500 nM; CLint scaled [4]: 24 mL/min/kg
5,–,CCc1ccc(-c2cc3ncn([C@H]4CCN(C(=O)N(C)[C@H]5CCN(C)C5)C4)c(=O)c3s2)cc1,inhibition at 120 µM [5]: 42%; CLint scaled [4]: 200 mL/min/kg
14,–,CCOc1ccc(-c2cc3ncn([C@H]4CCN(C(=O)N(C)[C@H]5CCN(C6CCOCC6)C5)C4)c(=O)c3s2)c(Cl)c1,–
3,10,CN(C(=O)N1CC[C@H](n2cnc3cc(-c4ccc(Cl)cc4)sc3c2=O)C1)[C@H]1CCN(CC2CC2)C1,–
69,–,CN(C(=O)N1CC[C@@H](n2cnc3cc(-c4ccc(Cl)cc4)sc3c2=O)C1)[C@@H]1CCN(C2CCOCC2)C1,–

Ki [1] [nM],IC50 [2] [nM],SMILES,also measured
46,–,COc1ccc(-c2cc3ncn([C@H]4CCN(C(=O)N(C)[C@H]5CCN(C)C5)C4)c(=O)c3s2)c(C)c1,–
17,29,CN(C(=O)N1CC[C@H](n2cnc3cc(-c4ccc(Cl)cc4)sc3c2=O)C1)[C@H]1CCNC1,–
17,–,CN1CC[C@H](N(C)C(=O)N2CC[C@H](n3cnc4cc(-c5ccc(C(F)(F)F)cc5)sc4c3=O)C2)C1,–
26,–,CCOc1ccc(-c2cc3ncn([C@H]4CCN(C(=O)N(C)[C@H]5CCN(C)C5)C4)c(=O)c3s2)c(Cl)c1,–
21,–,COc1ccc(-c2cc3ncn([C@H]4CCN(C(=O)N(C)[C@H]5CCN(C)C5)C4)c(=O)c3s2)cc1,–
4,13,CN(C(=O)N1CC[C@H](n2cnc3cc(-c4ccc(Cl)cc4)sc3c2=O)C1)[C@H]1CCN(C2CCCC2)C1,–
2,10,CN(C(=O)N1CC[C@H](n2cnc3cc(-c4ccc(Cl)cc4)sc3c2=O)C1)[C@H]1CCN(C2CCC(C)(C)CC2)C1,IC50 [3]: 3400 nM
6,31,CN(C(=O)N1CC[C@H](n2cnc3cc(-c4ccc(Cl)cc4)sc3c2=O)C1)[C@H]1CCN(CCCc2ccccc2)C1,IC50 [3]: 8600 nM; CLint scaled [4]: 41 mL/min/kg
80,–,CN(C(=O)N1CC[C@H](n2cnc3cc(-c4ccc(Cl)cc4)sc3c2=O)C1)[C@H]1CCN(CC(=O)c2ccc(OC(F)(F)F)cc2)C1,–
21,–,"CN(C(=O)N1CCC(n2cnc3cc(-c4ccc(Cl)cc4)sc3c2=O)C1)[C@@H]1CCN(C2CCOCC2)C1 (single isomer, unassigned)",–
15,–,Cc1ccc(-c2cc3ncn([C@H]4CCN(C(=O)N(C)[C@H]5CCN(C)C5)C4)c(=O)c3s2)cc1,–
1,9,CN(C(=O)N1CC[C@H](n2cnc3cc(-c4ccc(Cl)cc4)sc3c2=O)C1)[C@H]1CCN(C2CCC2)C1,–
28,–,COc1ccc(-c2cc3ncn([C@H]4CCN(C(=O)N(C)[C@H]5CCN(C6CCOCC6)C5)C4)c(=O)c3s2)c(C)c1,–
5,23,CC(C)N1CC[C@H](N(C)C(=O)N2CC[C@H](n3cnc4cc(-c5ccc(Cl)cc5)sc4c3=O)C2)C1,–
45,–,CN(C(=O)N1CC[C@H](n2cnc3cc(-c4ccc5c(c4)OCCO5)sc3c2=O)C1)[C@H]1CCN(C2CCOCC2)C1,–
50,53,CN(C(=O)N1CC[C@H](n2cnc3cc(-c4ccc(Cl)cc4)sc3c2=O)C1)[C@H]1CCN(CC2CCCCC2)C1,–
14,–,Cc1ccc(-c2cc3ncn([C@H]4CCN(C(=O)N(C)[C@H]5CCN(C6CCOCC6)C5)C4)c(=O)c3s2)cc1,–
8,–,CCc1ccc(-c2cc3ncn([C@H]4CCN(C(=O)N(C)[C@H]5CCN(C6CCOCC6)C5)C4)c(=O)c3s2)cc1,Activity [3]: 57 µM; CLint scaled [4]: 85 mL/min/kg
